# Laboratory results as given in PubChem BioAssay AID504901 (Southern Research Specialized Biocontainment Screening …, 2011).
# Where “and” joins values, the source holds several entries; their conditions need not be identical. Identical values can stand only once. Calls of active or inactive are those of the source. The rule behind the calls is not given here.
# Tests used:
# [1] = Mycobacterium tuberculosis H37Rv growth inhibition, no glycerol, confirmatory dose response (AID 504901); conditions: Mycobacterium tuberculosis H37Rv growth inhibition, no glycerol; at 50 µM (top of the series)
# [2] = test system: Mycobacterium tuberculosis H37Rv growth inhibition, no glycerol; assay: as above; conditions: for IC50: measured here: IC50 of growth inhibition
Compound,inhibition [1],IC90 [2],IC50 [2]
NC(=O)CSc1nc2ccccc2c(=O)[nH]1,-10.9% (inactive),,
Cc1[nH]c2ccccc2c1C(=O)COC(=O)c1ccc([N+](=O)[O-])s1,,27600 nM,26400 nM
Cc1ccc(C(=O)N/N=C(/CC(=O)c2cccs2)C(F)(F)F)cc1,,3580 nM,2560 nM
O=c1[nH]c(=S)[nH]c2ccccc12,-9.52% (inactive),,
Cc1ccc(NC(=O)CSc2nc3ccccc3c(=O)[nH]2)cc1Cl,-3.41% (inactive),,
CN[C@@H]1[C@H](O[C@H]2[C@H](O[C@H]3[C@H](O)[C@@H](O)[C@H](N=C(N)N)[C@@H](O)[C@@H]3N=C(N)N)O[C@@H](C)[C@]2(O)C=O)O[C@@H](CO)[C@H](O)[C@H]1O,,220 nM,150 nM
O=C(CSc1nc2ccccc2c(=O)[nH]1)N1CCOCC1,0.57% (inactive),,
CCSc1nc(C)c(C)c(=O)[nH]1,-2.72% (inactive),,
CCC(Sc1nc2c(c(=O)[nH]1)CCC2)C(=O)Nc1cccc(OC)c1 (stereo not given),3.19% (inactive),,
CC(Sc1nc2ccccc2c(=O)[nH]1)C(=O)NC1CCCCC1 (stereo not given),-6.09% (inactive),,
Cc1nc(SCC(N)=O)[nH]c(=O)c1C,-0.93% (inactive),,
Cc1nc(SCC(=O)NCCC(C)C)[nH]c(=O)c1C,,12800 nM,8990 nM
NC(=O)c1cnccn1,1.71% (inactive),,
Cc1cnc(SCC(=O)NC2CCCCC2)[nH]c1=O,-9.54% (inactive),,
Cc1nc(SCC(=O)N(C)c2ccccc2)[nH]c(=O)c1C,-3.18% (inactive),,
Cc1cc(Br)ccc1NC(=O)c1cnc(N2CCN(c3ccccn3)CC2)c2ccccc12,,50000 nM,3420 nM
CC(C)N=c1cc2n(-c3ccc(Cl)cc3)c3ccccc3nc-2cc1Nc1ccc(Cl)cc1,,,> 140 nM
CCC(Sc1nc2ccccc2c(=O)[nH]1)C(=O)NC1CCCCC1 (stereo not given),-7.27% (inactive),,
CCOC(=O)CSc1nc(C)c(C)c(=O)[nH]1,-7.41% (inactive),,
COc1cccc(NC(=O)CSc2nc3c(c(=O)[nH]2)CCC3)c1,4.58% (inactive),,
O=C(CSc1nc2ccccc2c(=O)[nH]1)NC1CCCCC1,,510 nM and 80 nM,
CCOc1ccc(-c2cc(C)[n+](CCc3ccc(OC)c(OC)c3)c(-c3ccc(OCC)cc3)c2)cc1,,1120 nM,710 nM
CC(C)CCNC(=O)CSc1nc2c(c(=O)[nH]1)CCC2,,1720 nM,1400 nM

Compound,inhibition [1],IC90 [2],IC50 [2]
O=C(CSc1nccc(=O)[nH]1)NC1CCCCC1,-0.32% (inactive),,
CCOC1OC(=O)C(Cl)=C1Nc1ccccc1C (stereo not given),,5870 nM,3110 nM
O=c1[nH]c(SCc2ccccc2Cl)nc2c1CCCC2,-5.59% (inactive),,
COc1ccc(NC(=O)CSc2nc3ccccc3c(=O)[nH]2)cc1,-9.6% (inactive),,
CCSc1nc2ccccc2c(=O)[nH]1,1.1% (inactive),,
CC(C)CCNC(=O)CSc1nc2ccccc2c(=O)[nH]1,,500 nM,< 140 nM
Cc1nc(SCC(=O)NC2CCCC2)[nH]c(=O)c1C,,13800 nM,9690 nM
CN(C)C(=O)CSc1nc2ccccc2c(=O)[nH]1,-6.71% (inactive),,
Cc1cc(=O)[nH]c(=S)[nH]1,-7.95% (inactive),,
Cc1ccc(NC(=O)COC(=O)CCc2c[nH]c3ccccc23)cc1[N+](=O)[O-],,7750 nM,2730 nM
Cc1cccc(-c2oc3ccc(-c4ccc5c(c4)OCO5)cc3c2C#Cc2cncn2C)c1,,2960 nM,2360 nM
Nc1cc(=O)[nH]c(SCC(=O)NC2CCCCC2)n1,-6.39% (inactive),,
Cc1[nH]c(=S)[nH]c(=O)c1C,3.12% (inactive),,
O=C(CSc1nc2c(c(=O)[nH]1)CCC2)NC1CCCCC1,,< 110 nM,< 70 nM
Cc1nc(SCc2ccccc2Cl)[nH]c(=O)c1C,-13.7% (inactive),,
COC(=O)C(Nc1nc(SCC(=O)NC2CCCCC2)nc2ccccc12)c1ccccc1 (stereo not given),-3.62% (inactive),,
COC(=O)C(C)Oc1ccc(Cc2ncc(C(F)(F)F)cc2Cl)cc1 (stereo not given),,5610 nM,3950 nM
Cc1c[nH]c(=S)[nH]c1=O,-2.94% (inactive),,
COc1cccc(NC(=O)CSc2nc3ccccc3c(=O)[nH]2)c1,-14.5% (inactive),,
Nc1c(C(=O)NC2CCCCC2)nsc1C(=O)OCC(=O)NC1CCCCC1,,6830 nM,4100 nM
COc1c(N2CCNC(C)C2)c(F)cc2c(=O)c(C(=O)O)cn(C3CC3)c12 (stereo not given),,,140 nM
CN1CCC(NC(=O)CSc2nc3ccccc3c(=O)[nH]2)CC1,-11.8% (inactive),,
CC(C)CNC(=O)CSc1nc2ccccc2c(=O)[nH]1,,790 nM,410 nM

Compound,inhibition [1],IC90 [2],IC50 [2]
CCCCNC(=O)CSc1nc2ccccc2c(=O)[nH]1,,1060 nM,320 nM
O=C(CSc1nc2ccccc2c(=O)[nH]1)NC1CCCC1,,500 nM,330 nM
CN(C(=O)CSc1nc2ccccc2c(=O)[nH]1)C1CCCCC1,-7.16% (inactive),,
O=C(CSc1nc2c(c(=O)[nH]1)CCCC2)NC1CCCCC1,,160 nM,90 nM
O=C(CSc1nc2ccccc2c(=O)[nH]1)NCc1ccc(Cl)cc1,,1470 nM,1030 nM
CNC(=O)CSc1nc2ccccc2c(=O)[nH]1,11.7% (inactive),,
Cc1cc(C)n2nc(N)c(N=Nc3ccccc3)c2n1,,5960 nM,4550 nM
CO[C@H]1/C=C/O[C@@]2(C)Oc3c(C)c(O)c4c(O)c(c(C=NN5CCN(C)CC5)c(O)c4c3C2=O)NC(=O)/C(C)=C\C=C\[C@H](C)[C@H](O)[C@@H](C)[C@@H](O)[C@@H](C)[C@H](OC(C)=O)[C@@H]1C,,,10 nM
CC[N+](C)(CC)CCCCOc1ccc2c(c1)C(=O)c1cc(OCCCC[N+](C)(CC)CC)ccc1-2,,,1900 nM
O=C(CSc1ncccn1)NC1CCCCC1,-1.46% (inactive),,
CC1CCN(C(=O)C2CCN(c3nnc(-n4cccc4)s3)CC2)CC1,,6400 nM,3290 nM
CC1CCN(C(=O)CSc2nc3ccccc3c(=O)[nH]2)CC1,-4.55% (inactive),,
COC(=O)c1ccc(CNc2c(N3CCCC3)c(=O)c2=O)cc1,-8.74% (inactive),,
CCC(Sc1nc2ccccc2c(=O)[nH]1)C(=O)Nc1cccc(OC)c1 (stereo not given),-3.07% (inactive),,
Cc1nc(SCC(=O)NC2CCCCC2)[nH]c(=O)c1C,,3780 nM,650 nM
CCCc1cc(C(N)=S)ccn1,,50000 nM,8840 nM
CC(C)NC(=O)CSc1nc2ccccc2c(=O)[nH]1,,14600 nM,9570 nM
Cc1cc(=O)[nH]c(SCC(=O)NC2CCCCC2)n1,-0.58% (inactive),,
Cc1cccc(/C=C/C(=O)c2ccc([N+](=O)[O-])o2)c1,,2060 nM,1360 nM
Cn1c(SCC(=O)NC2CCCCC2)nc2ccccc2c1=O,-9.98% (inactive),,
O=C(CSc1ccccn1)NC1CCCCC1,3.21% (inactive),,
NC[C@H]1O[C@H](O[C@H]2[C@H](O)[C@@H](O[C@H]3O[C@H](CO)[C@@H](O)[C@H](N)[C@H]3O)[C@H](N)C[C@@H]2N)[C@H](O)[C@@H](O)[C@@H]1O,,2470 nM,2010 nM
